US20070270484A1, “3'-N-Substituted-3-O-Substituted Erythronolide a Derivatives” (priority 2003, published 2007)
≈ marks a conversion by molar mass, not a printed value.

Tests used:
MoraXella MI = assay: MIC, agar incorporation method (NCCLS agar dilution method); assay type: cell-based; settings: 18-24 hours, 35±2° C.
Protocol: (§1) Drug dilutions and the agar plates are prepared by NCCLS method. Inoculum is prepared by direct colony suspensions in normal saline and adjusted to 0.5 McFarland turbidity and subsequently diluted as per NCCLS guidelines in order to obtain 10^4 CFU/spot. CFU/ml of a few randomly selected cultures is performed. The cultures are replicated on the agar plates using replicator (Denley's multipoint). The plates are incubated at 35±2° C. and in 5% CO2 atmosphere (for respiratory and Haemophilus strains) for 18-24 hours at 35±2° C. Minimum inhibitory concentrations (MIC) are determined after 18-24 hours. Q. C. strains are also included in each run of the study. The cation content of Mueller Hinton agar is checked by performing disk […] of 10 μg gentamicin disk against Pseudomonas aeroginosa ATCC 27853. The zone of inhibition should fall between 16-21 mm. The concentration of drug at which there is complete disappearance of growth spot or formation of less than 10 colonies per spot is considered as MIC.

S. pneum AB 34 (mef) = assay: as above; assay type: cell-based, streptococcus pneumoniae; settings: 18-24 hours, 35±2° C., 5% CO2, mef: efflux pump mef genes
Protocol: as §1

S. pneum ATCC 49619 = assay: as above; assay type: cell-based, streptococcus pneumoniae; settings: 35±2° C.; for Minimum Inhibitory Concentrations, S. pneum ATCC 49619: 18-24 hours, 5% CO2
Protocol: as §1

S. pneum 1251 (mef) = assay: as above; assay type: cell-based, streptococcus pneumoniae; settings: 18-24 hours, 35±2° C., 5% CO2, mef: efflux pump mef genes
Protocol: as §1

S. pneum ATCC 6303 = assay: as above; assay type: cell-based, streptococcus pneumoniae; settings: 18-24 hours, 35±2° C., 5% CO2
Protocol: as §1

S. pneum CS 1687 (mef) = assay: as above; assay type: cell-based, streptococcus pneumoniae; settings: 18-24 hours, 35±2° C., 5% CO2, mef: efflux pump mef genes
Protocol: as §1

H. inflenza ATCC 49247 = assay: as above; assay type: cell-based, Haemophilus influenzae; settings: agar dilution, 18-24 hours, 35±2° C., 5% CO2
Protocol: Minimum inhibitory concentrations (μg/ml) were obtained for representative compounds of the invention, which are given in Table 2.
as §1

S. pneum 1256 (erm) = assay: microbe, parasite or virus in culture; assay type: cell-based, streptococcus pneumoniae; settings: agar dilution, 18-24 hours, 35±2° C., 5% CO2; erm: ribosomal modification (mutation) erm genes
Protocol: as §1

S. pneum 1294 (mef) = assay: microbe, parasite or virus in culture; assay type: cell-based, streptococcus pneumoniae; settings: agar dilution, 18-24 hours, 35±2° C., 5% CO2; mef: efflux pump mef genes
Protocol: as §1

S. pneum 1275 (erm) = assay: microbe, parasite or virus in culture; assay type: cell-based, streptococcus pneumoniae; settings: for Minimum Inhibitory Concentrations, S. pneum 1275 (erm): agar dilution, 18-24 hours, 35±2° C., 5% CO2, erm: ribosomal modification (mutation) erm genes
Protocol: as §1

S. pneum AB 30 (erm) = assay: microbe, parasite or virus in culture; assay type: cell-based, streptococcus pneumoniae; settings: agar dilution, 18-24 hours, 35±2° C., 5% CO2; erm: ribosomal modification (mutation) erm genes
Protocol: as §1

S. pneum AB 14 (erm) = assay: microbe, parasite or virus in culture; assay type: cell-based, streptococcus pneumoniae; settings: for Minimum Inhibitory Concentrations, S. pneum AB 14 (erm): agar dilution, 18-24 hours, 35±2° C., 5% CO2, erm: ribosomal modification (mutation) erm genes
Protocol: as §1

S. pneum AB 29 (erm) = assay: microbe, parasite or virus in culture; assay type: cell-based, streptococcus pneumoniae; settings: agar dilution, 18-24 hours, 35±2° C., 5% CO2; erm: ribosomal modification (mutation) erm genes
Protocol: as §1

Row | Compound | Minimum Inhibitory Concentrations, MoraXella MI (MoraXella MI) [µg/mL] | Minimum Inhibitory Concentrations, S. pneum AB 34 (mef) (S. pneum AB 34 (mef)) [µg/mL] | Minimum Inhibitory Concentrations, S. pneum ATCC 49619 (S. pneum ATCC 49619) [µg/mL] | Minimum Inhibitory Concentrations, S. pneum 1251 (mef) (S. pneum 1251 (mef)) [µg/mL] | Minimum Inhibitory Concentrations, S. pneum ATCC 6303 (S. pneum ATCC 6303) [µg/mL] | Minimum Inhibitory Concentrations, S. pneum CS 1687 (mef) (S. pneum CS 1687 (mef)) [µg/mL] | Minimum Inhibitory Concentrations, H. inflenza ATCC 49247 (H. inflenza ATCC 49247) [µg/mL] | Minimum Inhibitory Concentrations, S. pneum 1256 (erm) (S. pneum 1256 (erm)) [µg/mL] | Minimum Inhibitory Concentrations, S. pneum 1294 (mef) (S. pneum 1294 (mef)) [µg/mL] | Minimum Inhibitory Concentrations, S. pneum 1275 (erm) (S. pneum 1275 (erm)) [µg/mL] | Minimum Inhibitory Concentrations, S. pneum AB 30 (erm) (S. pneum AB 30 (erm)) [µg/mL] | Minimum Inhibitory Concentrations, S. pneum AB 14 (erm) (S. pneum AB 14 (erm)) [µg/mL] | Minimum Inhibitory Concentrations, S. pneum AB 29 (erm) (S. pneum AB 29 (erm)) [µg/mL] | MIC (MoraXella MI; Moraxella, read-out: Minimum Inhibitory Concentrations, MoraXella MI) [µg/mL] | MIC (S. pneum ATCC 49619; Streptococcus pneumoniae, ATCC49619, 18-24 hours, 5% CO2, read-out: Minimum Inhibitory Concentrations, S. pneum ATCC 49619) [µg/mL] | MIC (S. pneum 1275 (erm); Streptococcus pneumoniae, read-out: Minimum Inhibitory Concentrations, S. pneum 1275 (erm)) [µg/mL] | MIC (S. pneum AB 14 (erm); Streptococcus pneumoniae, read-out: Minimum Inhibitory Concentrations, S. pneum AB 14 (erm)) [µg/mL]
1 | 3-O-(4-Fluorophenyl)acetyl-5-O-(3′-N-desmethyl-3′-N-allyl)desosaminyl-6-O-methyl erythronolide A [Compound No. 20] | 16 | >16 | 0.25 | 1 | 0.5 | 1 | >16 | 16 | 1 | >16 | >16 | >16 |  |  |  |  | 
2 | 3-O-(3-Fluorophenyl)acetyl-5-O-(3′-N-desmethyl-3′-N-allyl)desosaminyl-6-O-methyl erythronolide A [Compound No. 19] | 16 | 16 | 2 | 2 | 2 | 2 |  | >16 | 4 | >16 | >16 | >16 | 2 |  |  |  | 
3 | CCC1OC(=O)C(C)C(OC(=O)Cc2ccc(F)cc2)C(C)C(OC2OC(C)CC(N(C)Cc3ccc([N+](=O)[O-])cc3)C2O)C(C)(OC)CC(C)C(=O)C(C)C(O)C1(C)O (stereo not shown) [Compound No. 24, 3-O-(4-Fluorophenyl)acetyl-5-O-(3′-N-desmethyl-3′-N-(4-nitro)benzyl)desosaminyl-6-O-methyl erythronolide A] | 2 | >16 | 0.5 | 1 | 0.5 | 0.5 |  | >16 | 2 | >16 | >16 | 8 | >16 |  |  |  | 
4 | 3-O-(3-Fluorophenyl)acetyl-5-O-(3′-N-desmethyl-3′-N-propargyl)desosaminyl-6-O-methyl erythronolide A [Compound No. 22] | 4 | >16 | 0.5 | 4 | 0.5 | 1 | >16 | >16 | 4 | >16 | >16 | >16 |  |  |  |  | 
5 | CCC1OC(=O)C(C)C(OC(=O)Cc2ccc3ccccc3c2)C(C)C(OC2OC(C)CC(N(C)Cc3ccccc3)C2O)C(C)(OC)CC(C)C(=O)C(C)C(O)C1(C)O (stereo not shown) [Compound No. 73, 3-O-(2-Naphthyl)acetyl-5-O-(3′-N-desmethyl-3′-N-benzyl) desosaminyl-6-O-methyl erythronolide A] | 16 | >16 | 2 | 2 | 1 | 2 |  | >16 | >16 | >16 | >16 | >16 | >16 |  |  |  | 
6 | 3-O-(3-Fluorophenyl)acetyl-5-O-[3′-N-desmethyl-3′-N-cyclopropyl)desosaminyl-6-O-methyl erythronolide A [Compound No. 16] | >16 | >16 | 4 | 8 | 1 | 4 | >16 | 16 | 1 | >16 | >16 | >16 |  |  |  |  | 
7 | CCC[C@@H]1C[C@@H](C(=O)N[C@@H]([C@H]2O[C@H](SC)[C@H](O)[C@@H](O)[C@H]2O)[C@H](C)Cl)N(C)C1 [Cl, Clindamycin, reference compound] |  |  |  |  |  |  |  |  |  |  |  |  |  | 2 (≈ 4.71 µM) | 0.015 (≈ 0.0353 µM) | > 16 | > 16
8 | CCC1OC(=O)C(C)C(OC(=O)Cc2ccccc2F)C(C)C(OC2OC(C)CC(N(C)Cc3ccc(F)cc3)C2O)C(C)(OC)CC(C)C(=O)C(C)C(O)C1(C)O (stereo not shown) [Compound No. 5, 3-O-(2-Fluorophenyl)acetyl-5-O-[3′-N-desmethyl-3′-N-(4-fluoro)benzyl]desosaminyl-6-O-methyl erythronolide A] | >8 | >8 | 2 | 2 | 2 | 2 | >128 | >8 | 2 | >16 | >8 | >8 |  |  |  |  | 
